Assays:
human CYP3A4 = target: T1, human CYP3A4 (Homo sapiens, UniProt P08684); experiment: Assay of human CYP3A4-inhibitory activity; type: in vitro ADME; settings: testosterone 100 μM as substrate, 6β-hydroxytestosterone formation, 37° C., 30 min
T1 construct: purchased GENTEST
Experimental: Assay of Human CYP3A4-Inhibitory Activity
Performed as in the following according to Journal of Biological Chemistry, vol. 256, 11937 (1983).
A phosphate buffer solution (50 mM, pH 7.4) containing testosterone (final concentration 100 μM, hereinafter the same), human CYP3A4 (10 pmol/ml, manufactured by GENTEST), NADPH producing system (0.5 mM NADP, 5 mM glucose-6-phosphate, 5 mM magnesium chloride, 1.5 units/ml glucose-6-phosphate dehydrogenase) and the test compound was incubated at 37° C. for 30 min. Acetonitrile was added to the reaction mixture and the mixture was stirred and centrifuged. The 6β-hydroxytestosterone in the obtained supernatant was analyzed by high performance liquid chromatography. The concentration (IC50) of the compound necessary for 50% inhibition was calculated taking the production amount without addition of the test compound as 100%.

Rat Steroid C17,20-lyase = target: T2, Rat Steroid C17,20-lyase (Rattus norvegicus, UniProt P11715); experiment: Assay of inhibitory activity on rat steroid C17,20-lyase (testis microsomes); type: biochemical; settings: 10 nM [1,2-3H]-17α-hydroxyprogesterone, 37° C., 7 minutes
T2 construct: Testes were excised from 10- to 13-week-old male SD rats, homogenized, and centrifuged to give microsomes; from tissue; host or cells: testis microsomes of male SD rats
T2 sequence (P11715 1-507): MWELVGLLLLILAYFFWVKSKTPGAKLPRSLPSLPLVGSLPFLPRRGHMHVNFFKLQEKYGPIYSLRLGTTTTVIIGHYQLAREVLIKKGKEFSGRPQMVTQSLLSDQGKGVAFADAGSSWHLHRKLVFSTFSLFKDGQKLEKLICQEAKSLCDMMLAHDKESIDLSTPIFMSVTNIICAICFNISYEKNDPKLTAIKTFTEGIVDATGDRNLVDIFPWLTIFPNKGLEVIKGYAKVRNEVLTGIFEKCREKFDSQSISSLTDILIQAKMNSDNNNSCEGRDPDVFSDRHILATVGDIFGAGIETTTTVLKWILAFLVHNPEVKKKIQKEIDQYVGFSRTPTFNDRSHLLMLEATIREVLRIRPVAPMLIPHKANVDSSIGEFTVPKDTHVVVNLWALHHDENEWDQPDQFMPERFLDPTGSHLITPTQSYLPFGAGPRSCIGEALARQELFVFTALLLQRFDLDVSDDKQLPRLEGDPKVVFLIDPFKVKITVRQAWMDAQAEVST
Experimental: Assay of Inhibitory Activity on Rat Steroid C17,20-lyase
The activity was determined according to The Prostate, vol. 26, 140-150 (1995).
Testes were excised from 10- to 13-week-old male SD rats, homogenized, and centrifuged to give microsomes. [1,2-^3H]-17α-hydroxyprogesterone having a final concentration of 10 nM, NADPH solution and test compounds were dissolved in 10 μl of 100 mM phosphate buffer (pH 7.4) and microsome protein (7 μg/10 μl) was added. The reaction mixture was incubated at 37° C. for 7 minutes. Ethyl acetate (40 μl) was added and the mixture was centrifuged. The substrate and the products (androstenedione and testosterone) in the supernatant were separated by silica gel thin layer chromatography (TLC). The spots were detected and quantitatively determined by BAS 2000 Bioimage analyzer. The concentration of the test compounds necessary to reduce the amount of the products by 50% (IC50) relative to the amount of the products without test compound (control) as 100% was calculated, and shown in Table 1.

testosterone synthesis = experiment: Assay of inhibitory activity on testosterone synthesis in rats; type: in vivo, rat; settings: 25 mg/kg orally, male SD rats, serum testosterone two hours after administration, relative to control group
Experimental: Assay of Inhibitory Activity on Testosterone Synthesis in Rats
Test compounds (25 mg/kg) were orally administered to 9-week-old male SD (Sprague Dawley) rats. Two hours after administration of the compounds, blood was drawn and testosterone concentration in the obtained serum was measured by radioimmunoassay. The percentage (T/C, %) of the testosterone concentration of test compounds administration group to that of the control group was calculated, and taken as the inhibitory activity on testosterone synthesis.

T1 sequence (P08684 whole entry): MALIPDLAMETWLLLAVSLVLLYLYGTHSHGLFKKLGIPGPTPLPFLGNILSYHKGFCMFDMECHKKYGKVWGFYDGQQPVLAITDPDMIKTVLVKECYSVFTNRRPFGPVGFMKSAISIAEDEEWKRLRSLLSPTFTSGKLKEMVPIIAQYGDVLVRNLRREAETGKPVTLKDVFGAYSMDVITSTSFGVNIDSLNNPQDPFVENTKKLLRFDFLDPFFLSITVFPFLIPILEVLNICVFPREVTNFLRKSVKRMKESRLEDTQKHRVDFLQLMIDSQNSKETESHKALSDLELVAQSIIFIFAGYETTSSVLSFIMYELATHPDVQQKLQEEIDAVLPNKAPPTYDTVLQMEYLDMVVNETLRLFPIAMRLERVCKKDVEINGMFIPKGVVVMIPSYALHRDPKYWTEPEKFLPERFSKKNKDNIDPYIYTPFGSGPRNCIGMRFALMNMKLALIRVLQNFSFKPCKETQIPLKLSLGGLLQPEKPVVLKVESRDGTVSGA

Row | Compound | IC50 (human CYP3A4) [µM] | IC50 (Rat Steroid C17,20-lyase) [µM] | Testosterone synthesis inhibitory activity (T/C, %) (testosterone synthesis) [%]
1 | CC(C)C(O)(c1ccc2cc3c(cc2c1)CNC3=O)c1c[nH]cn1 (stereo not shown) [Example 10, 6-[1-hydroxy-1-(1H-imidazol-4-yl)-2-methylpropyl]-2,3-dihydro-1H-benzo[f]isoindol-1-one] | > 10 | 0.042 | 
2 | CC(C)C(O)(c1ccc2c3c(ccc2c1)C(=O)N(C)C3)c1c[nH]cn1 (stereo not shown) [Example 2, 7-[1-hydroxy-1-(1H-imidazol-4-yl)-2-methylpropyl]-2-methyl-1,2-dihydro-3H-benzo[e]isoindol-3-one] | > 10 | 0.015 | 
3 | CC(C)CC(O)(c1ccc2c3c(ccc2c1)C(=O)N(C)C3)c1c[nH]cn1 (stereo not shown) [Example 14, 7-[1-hydroxy-1-(1H-imidazol-4-yl)-3-methylbutyl]-2-methyl-1,2-dihydro-3H-benzo[e]isoindol-3-one] |  | 0.022 | 
4 | CCN1Cc2c(ccc3cc(C(O)(c4c[nH]cn4)C(C)C)ccc23)C1=O (stereo not shown) [Example 3, 2-ethyl-7-[1-hydroxy-1-(1H-imidazol-4-yl)-2-methylpropyl]-1,2-dihydro-3-benzo[e]isoindol-3-one] | > 10 | 0.023 | 
5 | CC(C)C(O)(c1ccc2c3c(ccc2c1)C(=O)N(C)C3)c1c[nH]cn1 (single isomer, unassigned; (-)) [Example 16, (−)-7-[1-hydroxy-1-(1H-imidazol-4-yl)-2-methylpropyl]-2-methyl-1,2-dihydro-3H-benzo[e]isoindol-3-one] |  |  | 4.3
6 | CC(C)C(O)(c1ccc2c3c(ccc2c1)C(=O)NC3)c1c[nH]cn1 (stereo not shown) [Example 1, 7-[1-hydroxy-1-(1H-imidazol-4-yl)-2-methylpropyl]-1,2-dihydro-3H-benzo[e]isoindol-3-one] |  | < 0.01 | 6.0
